Values of other authors in patent US12009562B2, “High solubility iron hexacyanides” (Lockheed Martin Energy, LLC, priority 2012, dated 2024).

O.O.O.O.O.O.O.O.O.O.[C-]#N.[C-]#N.[C-]#N.[C-]#N.[C-]#N.[C-]#N.[Fe+2].[Na+].[Na+].[Na+].[Na+] [Na4Fe(CN)6.10H2O]
concentration reported upon saturating 2 M NaOH: ~0.6 M
